Here are results for 1 compound from PMC7315583, “Structure and Dynamics of a Thermostable Alcohol Dehydrogenase from the Antarctic Psychrophile Moraxella sp. TAE123” (ACS Omega, 2020).

The test deals with MoADH (His-tagged alcohol dehydrogenase from Moraxella sp. TAE123) (Moraxella sp. TAE123, UniProt Q8GIX7). More on the design: gene adh. The following applies: turnover, fixed 35 mM ethanol, NAD+ varied 0-4.0 mM; pH 7.4; 10-53 °C.
Chain of MoADH (His-tagged alcohol dehydrogenase from Moraxella sp. TAE123) (Q8GIX7 whole entry): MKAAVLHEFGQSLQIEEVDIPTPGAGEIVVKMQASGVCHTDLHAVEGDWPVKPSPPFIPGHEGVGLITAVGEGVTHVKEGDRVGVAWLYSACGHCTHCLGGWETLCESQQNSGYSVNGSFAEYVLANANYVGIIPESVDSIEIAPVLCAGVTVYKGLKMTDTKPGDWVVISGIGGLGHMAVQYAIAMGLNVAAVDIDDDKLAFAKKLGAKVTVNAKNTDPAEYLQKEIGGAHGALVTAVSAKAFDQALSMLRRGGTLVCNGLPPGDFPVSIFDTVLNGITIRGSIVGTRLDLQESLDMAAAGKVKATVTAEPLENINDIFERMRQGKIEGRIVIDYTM

`CCO` [ethanol]: the “NADH absorbance at 340 nm, microplate reader” value is “Ethanol oxidation reaction rates have been measured as a function of temperature”.
